Our source for the IC50 values is US20260042764A1, “COMPOSITIONS AND METHODS FOR INHIBITION OF KRAS” (TheRas, Inc., priority 2022, published 2026).

Each structure is given as a SMILES string.

The IC50 is the concentration that inhibits the measured activity by half.

T1 sequence (P01116 2-169 isoform P01116-2 G12C): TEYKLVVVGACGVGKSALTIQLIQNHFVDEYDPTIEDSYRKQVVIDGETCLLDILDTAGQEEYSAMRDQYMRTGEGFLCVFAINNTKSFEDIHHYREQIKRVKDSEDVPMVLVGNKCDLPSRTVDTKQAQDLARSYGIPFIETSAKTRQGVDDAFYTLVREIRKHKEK

The assay concerns the target T1, Avi-KRAS G12C (2-169) GTP/RAF1 RBD-3xFLAG (51-131) (Homo sapiens, UniProt P01116, G12C).
T1 construct: Avi-KRAS G12C (2-169)
The assay is described as follows: Raf1-KRAS G12C-GTP disruption HTRF assay (Biological Example 3). It is filed as binding. The note with it: KRAS G12C, GTP-loaded. A digest of the protocol: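 50 nM Avi-KRAS (2-169) GTP/RAF1 RBD complex; 75 nM RBD-Avi; pH 7.5 Tris buffer, 10% DMSO; cpd 30 μM top, 3x, 10 pts; 1 h RT, 700 rpm; HTRF, % of DMSO.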
On the technique in general: Time-resolved FRET reads energy transfer from a long-lived donor to a nearby acceptor.
Turning to `C[C@@H]1[C@H](N(C)c2nc(OC[C@@]34CCCN3C[C@H](F)C4)nc3c(F)c(-c4ccc(F)c5sc(N)c(C#N)c45)c(C(F)(F)F)cc23)CCN1C(=O)C1CC1` (atropisomer, axis not shown) [Compound 333], the half-maximal inhibitory concentration (IC50) lay in the range of 100 to 1000 nM. Then `CCC(=O)N1CC[C@@H](N(C)c2nc(OC[C@@]34CCCN3C[C@H](F)C4)nc3c(F)c(-c4ccc(F)c5sc(N)c(C#N)c45)c(C(F)(F)F)cc23)[C@H]1C` (atropisomer, axis not shown) [Compound 335], with 100 to 1000 nM; and `CCN(c1nc(OC[C@@]23CCCN2C[C@H](F)C3)nc2c(F)c(-c3ccc(F)c4sc(N)c(C#N)c34)c(C(F)(F)F)cc12)[C@H]1CCN(C(=O)[C@H]2CCO2)C1` (atropisomer, axis not shown) [Compound 577], with at most 100 nM; and `C[C@H](c1cccnc1N)N(C)c1nc(OC[C@@]23CCCN2C[C@H](F)C3)nc2c(F)c(-c3ccc(F)c4sc(N)c(C#N)c34)c(C(F)(F)F)cc12` (atropisomer, axis not shown) [Compound 600], with at most 100 nM. Then `CCN(c1nc(OC[C@@]23CCCN2C[C@H](F)C3)nc2c(F)c(-c3ccc(F)c4sc(N)c(C#N)c34)c(C(F)(F)F)cc12)[C@H]1CCN(C(=O)[C@@H]2CCO2)C1` (atropisomer, axis not shown) [Compound 603], with at most 100 nM. As for `CCN(c1nc(OC[C@@]23CCCN2C[C@H](F)C3)nc2c(F)c(-c3ccc(F)c4sc(N)c(C#N)c34)c(C(F)(F)F)cc12)[C@H]1C[C@@H]2CN(C)C(=O)N2C1` (atropisomer, axis not shown) [Compound 605], the figure is 100 to 1000 nM; as for `CCN(c1nc(OC[C@@]23CCCN2C[C@H](F)C3)nc2c(F)c(-c3ccc(F)c4sc(N)c(C#N)c34)c(C(F)(F)F)cc12)[C@H]1CCN(C(=O)N2CC(OC)C2)C1` (atropisomer, axis not shown) [Compound 607], at most 100 nM; as for `CC(=O)N1CC[C@H](N(c2nc(OC[C@@]34CCCN3C[C@H](F)C4)nc3c(F)c(-c4ccc(F)c5sc(N)c(C#N)c45)c(C(F)(F)F)cc23)C2CC2)C1` (atropisomer, axis not shown) [Compound 608], 100 to 1000 nM.

`CCN(c1nc(OC[C@@]23CCCN2C[C@H](F)C3)nc2c(F)c(-c3ccc(F)c4sc(N)c(C#N)c34)c(C(F)(F)F)cc12)[C@H]1CCN(C(=O)CC(F)F)C1` (atropisomer, axis not shown) [Compound 611] had an IC50 of at most 100 nM. As for `CCN(c1nc(OC[C@@]23CCCN2C[C@H](F)C3)nc2c(F)c(-c3ccc(F)c4sc(N)c(C#N)c34)c(C(F)(F)F)cc12)[C@H]1CC(=O)N(CC(F)F)C1` (atropisomer, axis not shown) [Compound 613], the figure is at most 100 nM; as for `CCN(c1nc(OC[C@@]23CCCN2C[C@H](F)C3)nc2c(F)c(-c3ccc(F)c4sc(N)c(C#N)c34)c(C(F)(F)F)cc12)[C@H]1CC(=O)N(C)C1` (atropisomer, axis not shown) [Compound 614], 100 to 1000 nM; as for `CCN(c1nc(OC[C@@]23CCCN2C[C@H](F)C3)nc2c(F)c(-c3ccc(F)c4sc(N)c(C#N)c34)c(C(F)(F)F)cc12)[C@H]1CC(=O)N(C2CC2)C1` (atropisomer, axis not shown) [Compound 615], at most 100 nM. Then `CCN(c1nc(OC[C@@]23CCCN2C[C@H](F)C3)nc2c(F)c(-c3ccc(F)c4sc(N)c(C#N)c34)c(C(F)(F)F)cc12)[C@H]1CCN(C(=O)N2CCN(C(C)=O)CC2)C1` (atropisomer, axis not shown) [Compound 619], with 100 to 1000 nM. Consider `CC(=O)N1CC[C@H](N(CCF)c2nc(OC[C@@]34CCCN3C[C@H](F)C4)nc3c(F)c(-c4ccc(F)c5sc(N)c(C#N)c45)c(C(F)(F)F)cc23)C1` (atropisomer, axis not shown) [Compound 622], for which the half-maximal inhibitory concentration (IC50) fell in the range of 100 to 1000 nM.

`CCN1C[C@@H](N(C)c2nc(OC[C@@]34CCCN3C[C@H](F)C4)nc3c(F)c(-c4ccc(F)c5sc(N)c(C#N)c45)c(C(F)(F)F)cc23)CC1=O` (atropisomer, axis not shown) [Compound 636] returned an IC50 of 100 to 1000 nM.

Regarding `CCN(c1nc(OC[C@@]23CCCN2C[C@H](F)C3)nc2c(F)c(-c3ccc(F)c4sc(N)c(C#N)c34)c(C(F)(F)F)cc12)[C@H]1CCN(C(=O)C2CN(C(C)=O)C2)C1` (atropisomer, axis not shown) [Compound 638], the IC50 was at most 100 nM.

The compound `C=C(C)C(=O)N1CC[C@H](N(CC)c2nc(OC[C@@]34CCCN3C[C@H](F)C4)nc3c(F)c(-c4ccc(F)c5sc(N)c(C#N)c45)c(C(F)(F)F)cc23)C1` (atropisomer, axis not shown) [Compound 673] gave an IC50 of at most 100 nM. As for `CCN(c1nc(OC[C@@]23CCCN2C[C@H](F)C3)nc2c(F)c(-c3ccc(F)c4sc(N)c(C#N)c34)c(C(F)(F)F)cc12)[C@H]1CCN(C(=O)O[C@@H]2CCOC2)C1` (atropisomer, axis not shown) [Compound 683], the figure is at most 100 nM. As for `CCN(c1nc(OC[C@@]23CCCN2C[C@H](F)C3)nc2c(F)c(-c3ccc(F)c4sc(N)c(C#N)c34)c(C(F)(F)F)cc12)[C@H]1CCN(C(=O)[C@@H]2C[C@@H]2C)C1` (atropisomer, axis not shown) [Compound 689], the figure is 100 to 1000 nM. As for `CCN(c1nc(OC[C@@]23CCCN2C[C@H](F)C3)nc2c(F)c(-c3ccc(F)c4sc(N)c(C#N)c34)c(C(F)(F)F)cc12)[C@@H]1CC(=O)N(C2CC2)C1` (atropisomer, axis not shown) [Compound 703], the figure is 1000 to 10000 nM; as for `CCN(c1nc(OC[C@@]23CCCN2C[C@H](F)C3)nc2c(F)c(-c3ccc(F)c4sc(N)c(C#N)c34)c(C(F)(F)F)cc12)[C@H]1CCN(C(=O)c2ccns2)C1` (atropisomer, axis not shown) [Compound 726], 100 to 1000 nM; as for `CCN(c1nc(OC[C@@]23CCCN2C[C@H](F)C3)nc2c(F)c(-c3ccc(F)c4sc(N)c(C#N)c34)c(C(F)(F)F)cc12)[C@H]1CCN(C(=O)N(C)C)[C@@H]1C` (atropisomer, axis not shown) [Compound 749], at most 100 nM.

The compound `CCN(c1nc(OC[C@@]23CCCN2C[C@H](F)C3)nc2c(F)c(-c3ccc(F)c4sc(N)c(C#N)c34)c(C(F)(F)F)cc12)[C@H]1C[C@@H](C)N(C(=O)[C@H]2CCO2)C1` (atropisomer, axis not shown) [Compound 752] yielded a concentration for half-maximal inhibition (IC50) of 100 to 1000 nM.

Take `CCN(c1nc(OC[C@@]23CCCN2C[C@H](F)C3)nc2c(F)c(-c3ccc(F)c4sc(N)c(C#N)c34)c(C(F)(F)F)cc12)[C@H]1C[C@H]2CCC(=O)N2C1` (atropisomer, axis not shown; (aR)) [Compound 573, 2-amino-4-((S)-4-(ethyl((2S,7aR)-5-oxohexahydro-1H-pyrrolizin-2-yl)amino)-8-fluoro-2-(((2R,7aS)-2-fluorotetrahydro-1H-pyrrolizin-7a(5H)-yl)methoxy)-6-(trifluoromethyl)quinazolin-7-yl)-7-fluorobenzo[b]thiophene-3-carbonitrile]: the IC50 was at most 100 nM. `[2H]C1([2H])O[C@@H]2C[C@H]1N(c1nc(OC[C@@]34CCCN3C[C@H](F)C4)nc3c(F)c(-c4ccc(F)c5sc(N)c(C#N)c45)c(C(F)(F)F)cc13)C2` [Compound 371] had an IC50 of 1000 to 10000 nM. The compound `CCN(c1nc(OC[C@@]23CCCN2C[C@H](F)C3)nc2c(F)c(-c3ccc(F)c4sc(N)c(C#N)c34)c(C(F)(F)F)cc12)[C@H]1CCN(C(=O)OC)C1` [Compound 394] yielded a half-inhibitory concentration (IC50) of 100 to 1000 nM. For the compound `CCN(c1nc(OC[C@@]23CCCN2C[C@H](F)C3)nc2c(F)c(-c3ccc(F)c4sc(N)c(C#N)c34)c(C(F)(F)F)cc12)[C@H]1CCN(C(=O)C2CC2(F)F)C1` (stereo partly shown) [Compound 581], the IC50 is at most 100 nM.

In turn, `N#Cc1c(N)sc2c(F)ccc(-c3c(C(F)(F)F)cc4c(N5CCn6nc(C(=O)N7CCOCC7)cc6C5)nc(OCC56CCCN5CC(F)C6)nc4c3F)c12` (stereo not shown) [Compound 646] returned an IC50 of 100 to 1000 nM. In turn, `CCN(c1nc(OC[C@@]23CCCN2C[C@H](F)C3)nc2c(F)c(-c3ccc(F)c4sc(N)c(C#N)c34)c(C(F)(F)F)cc12)[C@H]1CCN(C(=O)C2C[C@@H]2F)C1` (stereo partly shown) [Compound 692] showed an IC50 of at most 100 nM. `N#Cc1c(N)sc2c(F)ccc(-c3c(C(F)(F)F)cc4c(N(C5CC5)[C@H]5CCS(=O)(=O)C5)nc(OC[C@@]56CCCN5C[C@H](F)C6)nc4c3F)c12` [Compound 702]: the IC50 is over 10000 nM. Take `CCN(c1nc(OC[C@]23CCCN2C[C@H](F)C3)nc2c(F)c(-c3ccc(F)c4sc(N)c(C#N)c34)c(C(F)(F)F)cc12)[C@H]1CCN(C(=O)C(C)C)C1` [Compound 705]: the IC50 lay within 100 to 1000 nM. Compound `CCN(c1nc(OC[C@@H]2C[C@@H](OC)CN2C)nc2c(F)c(-c3ccc(F)c4sc(N)c(C#N)c34)c(C(F)(F)F)cc12)[C@H]1CCN(C(=O)C(C)C)C1` [Compound 706] yielded a half-maximal inhibitory concentration (IC50) of 1000 to 10000 nM. Then `Cc1c(C(=O)N2CCOCC2)nn2c1CN(c1nc(OCC34CCCN3CC(F)C4)nc3c(F)c(-c4ccc(F)c5sc(N)c(C#N)c45)c(C(F)(F)F)cc13)CC2` (stereo not shown) [Compound 741], with 100 to 1000 nM; and `Cc1c(C(=O)N2CCCC2)nn2c1CN(c1nc(OCC34CCCN3CC(F)C4)nc3c(F)c(-c4ccc(F)c5sc(N)c(C#N)c45)c(C(F)(F)F)cc13)CC2` (stereo not shown) [Compound 744], with 100 to 1000 nM.
